Experimental data taken from patent US20250109120A1, “INDOLINE DERIVATIVES FOR TREATMENT AND/OR PREVENTION OF TUMOR OR CELL PROLIFERATIVE AND FIBROSIS DISEASES” (NATIONAL TAIWAN UNIVERSITY, priority 2023, published 2025).

Experiments:
[1] = tested on: PC-3 cells; test: β-catenin target protein expression, western blot; format: cell-based, human; settings: 24 h
Method: Inhibitory phosphorylation of GSK3β was evaluated through western blotting. […] Whole-cell lysates were subjected to western blotting with the indicated antibodies. FIGS. 11J-11K show the comparison of basal activities of the Akt/GSK3β axis between PC-3 and DU145 cells. […] The results are shown as the mean±SEM from at least three independent experiments (*p<0.05, **p<0.01, ***p<0.001 vs. control group; #p<0.05, ##p<0.01, and ###p<0.001 vs. relevant control).
The cells were incubated in lysis buffer for 10 min at 4° C., scraped off, incubated on ice for an additional 10 min and then centrifuged at 17,000 g for 30 min at 4° C. Protein samples were electrophoresed on SDS-PAGE gels, transferred to PVDF membranes and blocked with 5% fat-free milk in PBS for 30 min at room temperature. Immunoblotting was performed overnight with primary antibodies in PBS at 4° C., followed by incubation with HRP-conjugated secondary antibodies for 1 h at room temperature. Bound antibodies will be measured using an ECL reagent and exposed to a photographic film. In the immunoprecipitation assay, cell lysates were immunoprecipitated with 1 μg of antibody and A/G agarose beads overnight at 4° C. After washing the precipitated beads three times with 1 mL ice-cold cell lysis buffer, bound immune complexes were separated by 10% SDS-PAGE and analyzed with immunoblotting.

[2] = biological target: CDK19 (Homo sapiens (Human), UniProt Q9BWU1); test: Kinase selectivity panel of 54 kinases (SelectScreen); format: biochemical; settings: 150 nM, 54-kinase panel
Method: (§1) Compounds were tested for kinase inhibitory activity using the Thermo Fisher SelectScreen service (www.thermofisher.com/selectscreen). For CDK8, the LanthaScreen Eu Binding Assay was used. Briefly, the assay employed utilizes a fluorescent tracer to a given kinase. This is used to detect the addition of an anti-tag antibody. When the tracer and antibody bind to the targeted kinase, the Forster resonance energy transfer is measured. When a kinase inhibitor is added to the assay, the tracer/kinase binding will be disrupted, producing low FRET detection and indicating kinase inhibitory activity. Evaluation of kinase activity of additional kinase targets utilized the LanthaScreen binding assay or the Z′-Lyte activity assay provided by Thermo Fisher SelectScreen service. The IC50 values were determined using sequential doses, and the inhibition curves were provided by Thermo Fisher Scientific.
(§2) Compound k was evaluated for kinase selectivity. […] The cytotoxicity of compound k was then assessed in DU145 and PC-3 cells, human prostate cancer cell lines isolated from patients with brain and bone metastasis, respectively. […] To further examine whether compound k still inhibited CDK8/19 inhibition in cells, we assessed whether compound treatment in DU145/PC-3 androgen-independent prostate cancer cells could inhibit STAT1-S727 phosphorylation. […]

[3] = tested on: other CDKs and kinases; test: as above; format: biochemical; settings: 150 nM, 54-kinase panel
Method: as §1, §2

[4] = tested on: A549 cells; test: Nuclear p-Smad3 T179 and RNA polymerase II pS2/S5 after TGF-β1, fractionation and western blot; format: cell-based, human; settings: compound k 5 μM, senexin A 5 μM, pirfenidone 1 mM; TGF-β1 10 ng/ml 3 h
Method: FIGS. 8A-8B show the inhibitory effects of cellular distributions of TGF-β1-induced p-Smad3 T179, RNA polymerase II pS2/S5, and Smad3 after treatment with compound k. Human alveolar epithelial A549 cells were incubated with compound k (5 μM), senexin A (5 μM), or pirfenidone (1 mM) for 1 h, followed by stimulation with TGF-β1 (10 ng/ml) for 3 h. Protein expressions in the cytoplasmic and nuclear fractions were subjected to a Western blot analysis using the indicated antibodies. α-Tubulin and histone H3 served as loading controls for the cytoplasmic and nuclear fractions, respectively. Results are shown as the mean±SEM of three independent experiments. **p<0.01 and ***p<0.001 compared to the control group; #p<0.05 and ##p<0.01 compared to the TGF-β1-treated group.
Cells (106) were incubated for 10 min at 4° C. in lysis buffer (20 mM HEPES at pH 7.4, 2 mM EGTA, 50 mM β-glycerophosphate, 0.1% Triton X-100, 10% glycerol, 1 mM DTT, 1 μg/mL of leupeptin, 5 μg/mL of aprotinin, 1 mM phenylmethylsulfonyl fluoride, and 1 mM sodium orthovanadate), scraped off, incubated on ice for an additional 10 min, and centrifuged at 17,000 g for 30 min at 4° C. Protein samples (20 μg) were then electrophoresed on SDS-polyacrylamide gel electrophoresis (PAGE) gels and transferred to a nitrocellulose membrane, which was then blocked by incubation for 30 min at room temperature with 5% bovine serum albumin (BSA) in Tris-buffered saline with 0.1% Tween-20 (TBST). Immunoblotting was performed by overnight incubation at 4° C. with primary antibodies in TBST, followed by incubation for 1 h at room temperature with horseradish peroxidase (HRP)-conjugated secondary antibodies. Bound antibodies were measured using enhanced chemiluminescence (ECL) reagent (GE Healthcare, UK) and exposed to photographic film.
A Nuclear/Cytosol Fractionation Kit (Biovision, USA) was used to separate the cytosolic and nuclear fractions. […]

[5] = tested on: A549 cells; test: Wound-healing migration assay; format: cell-based, human; settings: compounds 2 μM, senexin A 5 μM, pirfenidone 1 mM; TGF-β1 10 ng/mL; 24 or 48 h
Method: A549 cells were incubated in six-well plates until reaching 90% confluency, scratched with a pipette tip, and immediately photographed (0 h). Cells were incubated with or without compound k (2 μM), senexin A (5 μM), or pirfenidone (1 mM) for 1 h, then treated with TGF-β1 (10 ng/mL) and allowed to migrate into the wound area for 24 or 48 h, and photographed. Cell migration into the wound was quantified using ImageJ software; the solid line indicates time zero. Quantitative assessment of the mean number of cells in the denuded zone is expressed as the mean±SEM from three independent experiments. **p<0.01 compared to the control group; ##p<0.01 and ###p<0.001 compared to TGF-β1-treated group.
Cells were seeded in six-well plates and cultured to 90% confluency, at which time the cellular monolayer was wounded with a sterile 10-μL pipette tip and washed with culture medium to remove detached cells. Cells were incubated in the presence or absence of test compounds for 24 h and photographed. The wound closure percentages were subsequently determined using ImageJ software (National Institutes of Health, USA).

Sequence of CDK19 (Q9BWU1 whole entry): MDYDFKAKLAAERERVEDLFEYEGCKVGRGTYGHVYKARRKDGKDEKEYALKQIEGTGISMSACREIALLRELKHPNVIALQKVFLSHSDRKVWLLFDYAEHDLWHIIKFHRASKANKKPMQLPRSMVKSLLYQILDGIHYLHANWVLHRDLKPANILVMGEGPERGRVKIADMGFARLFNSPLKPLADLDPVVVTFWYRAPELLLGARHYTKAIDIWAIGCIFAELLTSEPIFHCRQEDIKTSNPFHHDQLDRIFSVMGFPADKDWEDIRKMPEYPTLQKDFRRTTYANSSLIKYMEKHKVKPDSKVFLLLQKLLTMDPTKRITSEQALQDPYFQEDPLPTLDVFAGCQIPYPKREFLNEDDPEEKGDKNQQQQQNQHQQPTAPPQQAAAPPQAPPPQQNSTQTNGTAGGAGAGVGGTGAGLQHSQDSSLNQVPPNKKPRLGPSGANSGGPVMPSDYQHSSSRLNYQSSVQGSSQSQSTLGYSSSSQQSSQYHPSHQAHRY

## CNC(=O)c1cc(Oc2ccc(NS(=O)(=O)c3ccc4c(c3)C(=C(C)C)C(=O)N4)c(F)c2)ccn1 [Compound k, 4-(3-Fluoro-4-((2-oxo-3-(propan-2-ylidene)indoline)-5-sulfonamido)phenoxy)-N-methylpicolinamide]
[1]
  Snail expression: markedly inhibited
[2]
  CDK19 inhibition percentage: 40%
[3]
  effect on other CDKs and kinases: no significant effect
[4]
  phosphorylation of p-Smad3 T179 and RNA Pol II pSer2/5: significantly reversed
[5]
  inhibition of cell migration: potent inhibition
